These results are taken from patent US10561720B2, “Pharmaceutical compositions, comprising a combination of select carriers, vitamins, tannins and flavonoids as antigen-specific immuno-modulators” (EpitoGenesis, Inc., priority 2011, dated 2020).

In one data set the test system is Female BALB/c mice. Kind of data set: Example 5: IM vaccination with gp120 BaL in oleic acid formulations, serum gp120-specific IgG1 ELISA at 2WP2. Format: in vivo. As to conditions: 40% oleic acid, compared to oleic acid plus EGCG, VA plus EGCG alone or no adjuvant, FIG. 11. The procedure:
Groups of 4 female BALB/C mice were vaccinated intra-muscularly with various vaccine formulations containing 2.5 ug gp120 from the BaL Glade of HIV-1 twice at a 3 weeks interval. Serum gp120-specific IgG1 titers were measured by ELISA at 2 weeks post second vaccination (2WP2). The mice were vaccinated with combinations of retinyl palmitate (RP; 54 IU), epigallo catechin gallate (EGCG; 120 ug) in either 40% oleic acid, each alone or in various combinations.
A general note: In an ELISA, binding on a coated surface is turned into a signal by an enzyme label.

The next data set concerns mice. The experiment in a line: serum TNFα and IL-6 at 6 hours following a single IM injection. Format: in vivo. As to conditions: 6 hours after single IM vaccination; vs. NIDS or no adjuvant; FIG. 8.
A further data set relates to murine air pouch model. The experiment in a line: murine air pouch model of local cytotoxicity, multiplex Luminex of pouch fluid. Format: in vivo, mice. Particulars: compared to injection of NIDS, FIG. 7. The procedure: A local cytotoxicity test was performed by employing the murine air pouch model.
The next data set has as its system BALB/c mice. Kind of data set: cytokine responses in iliac lymph nodes after mucosal (IN/SL) and systemic (IM) vaccinations. The data set is classed as in vivo. As to conditions: two mucosal (IN/SL) and one systemic (IM) boosting vaccinations vs. three IM vaccinations with Imject Alum; FIG. 4.
[1] abbreviates: air pouch supernatant 6 hours after injection.

In the case of `CCCCCCCC/C=C\CCCCCCCC(=O)O` [oleic acid], the “serum IgG1 antigen-specific responses” value in the data set on Female BALB/c mice was “enhanced”.

On to poly (I:C), for which, in the data set on mice, the “serum IL-6” value was “significantly enhanced” and the “serum TNFα” value is “significantly enhanced”. Further, the TNFα entry in the data set with murine air pouch model (air pouch supernatant 6 hours after injection of seven mouse vaccine dose equivalents) is reported as “Significantly higher”. Further, in the data set on murine air pouch model (setting [1]), the G-CSF result is “Significantly higher”, the IL-6 result is listed as “Significantly higher”, the IP-10 entry is recorded as “Significantly higher” and the KC entry is “Significantly higher”. Moreover, in the data set with murine air pouch model (setting [1]), the MCP-1 entry is recorded as “Significantly higher”, the MIP1-a entry was “Significantly higher”, the MIP-1b result is “Significantly higher” and the MIP-2 entry is recorded as “Significantly higher”. Moreover, the RANTES result in the data set on murine air pouch model (setting [1]) is reported as “Significantly higher”. Besides, the “local TH1 and TH2 cytokine responses in iliac lymph nodes” value with BALB/c mice was “enhanced”.
